Data on 9 molecules can be found in patent US7981903B2, “2-[2-{phenylamino}-1H-pyrrolo[2,3-D]pyrimidin-4-yl)amino] benzamide derivatives as IGF-1R inhibitors for the treatment of cancer” (GlaxoSmithKline LLC, priority 2007, dated 2011).

Assay [1] addresses T1, ALK (Homo sapiens, UniProt Q9UM73). The arrangement: host or cells: ALCL cells; the other entry of the earlier key: NPM1 (P06748, Nucleophosmin). The note with it: cited from earlier work.
Target sequence in this assay (Q9UM73 with tags, fused parts or gaps): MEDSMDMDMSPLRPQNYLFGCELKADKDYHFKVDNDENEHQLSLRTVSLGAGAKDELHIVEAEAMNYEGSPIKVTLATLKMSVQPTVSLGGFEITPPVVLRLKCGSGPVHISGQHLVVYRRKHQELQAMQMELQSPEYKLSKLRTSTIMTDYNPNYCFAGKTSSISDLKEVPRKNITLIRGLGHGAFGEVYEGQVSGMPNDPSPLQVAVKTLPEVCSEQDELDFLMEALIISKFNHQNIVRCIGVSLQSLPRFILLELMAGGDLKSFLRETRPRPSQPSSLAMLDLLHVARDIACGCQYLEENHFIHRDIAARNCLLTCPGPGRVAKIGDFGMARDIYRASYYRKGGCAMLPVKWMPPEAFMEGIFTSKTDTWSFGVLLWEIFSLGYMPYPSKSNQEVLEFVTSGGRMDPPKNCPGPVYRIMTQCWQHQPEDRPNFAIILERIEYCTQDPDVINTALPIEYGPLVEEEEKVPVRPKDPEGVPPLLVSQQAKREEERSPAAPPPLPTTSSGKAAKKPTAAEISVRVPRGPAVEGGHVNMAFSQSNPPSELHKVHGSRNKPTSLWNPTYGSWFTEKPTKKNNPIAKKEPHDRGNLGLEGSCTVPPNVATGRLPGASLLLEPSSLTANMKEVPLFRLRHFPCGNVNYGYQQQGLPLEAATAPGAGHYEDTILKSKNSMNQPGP
The test system of assay [2] is ALCL cells. Conditions: cited from earlier work.
For assay [3], the system named is ALCL cells. The note with it: cited from earlier work. This is another data set of the same source.
Assay [4] has as its target T2, human IR (hIR) (Homo sapiens, UniProt P06213).
T2 construct: containing amino acid residues 979-1382 of human IR; made in house; host or cells: Sf9 cells (baculovirus), same process as hIGF1R
Kind of assay: TR-FRET kinase assay of purified hIR. Type of assay: biochemical. Conditions: activated hIR 0.5 nM, 10 μM ATP, values given as pIC50 category. For orientation: TR-FRET usually uses a lanthanide donor and a delayed reading to cut background.

The target in assay [5] is T3, NIH-3T3 cells overexpressing human IR (Homo sapiens, UniProt P06213).
T3 construct: expressed in transfected cells; host or cells: NIH-3T3 (mouse fibroblasts)
T3 sequence (P06213 28-1382): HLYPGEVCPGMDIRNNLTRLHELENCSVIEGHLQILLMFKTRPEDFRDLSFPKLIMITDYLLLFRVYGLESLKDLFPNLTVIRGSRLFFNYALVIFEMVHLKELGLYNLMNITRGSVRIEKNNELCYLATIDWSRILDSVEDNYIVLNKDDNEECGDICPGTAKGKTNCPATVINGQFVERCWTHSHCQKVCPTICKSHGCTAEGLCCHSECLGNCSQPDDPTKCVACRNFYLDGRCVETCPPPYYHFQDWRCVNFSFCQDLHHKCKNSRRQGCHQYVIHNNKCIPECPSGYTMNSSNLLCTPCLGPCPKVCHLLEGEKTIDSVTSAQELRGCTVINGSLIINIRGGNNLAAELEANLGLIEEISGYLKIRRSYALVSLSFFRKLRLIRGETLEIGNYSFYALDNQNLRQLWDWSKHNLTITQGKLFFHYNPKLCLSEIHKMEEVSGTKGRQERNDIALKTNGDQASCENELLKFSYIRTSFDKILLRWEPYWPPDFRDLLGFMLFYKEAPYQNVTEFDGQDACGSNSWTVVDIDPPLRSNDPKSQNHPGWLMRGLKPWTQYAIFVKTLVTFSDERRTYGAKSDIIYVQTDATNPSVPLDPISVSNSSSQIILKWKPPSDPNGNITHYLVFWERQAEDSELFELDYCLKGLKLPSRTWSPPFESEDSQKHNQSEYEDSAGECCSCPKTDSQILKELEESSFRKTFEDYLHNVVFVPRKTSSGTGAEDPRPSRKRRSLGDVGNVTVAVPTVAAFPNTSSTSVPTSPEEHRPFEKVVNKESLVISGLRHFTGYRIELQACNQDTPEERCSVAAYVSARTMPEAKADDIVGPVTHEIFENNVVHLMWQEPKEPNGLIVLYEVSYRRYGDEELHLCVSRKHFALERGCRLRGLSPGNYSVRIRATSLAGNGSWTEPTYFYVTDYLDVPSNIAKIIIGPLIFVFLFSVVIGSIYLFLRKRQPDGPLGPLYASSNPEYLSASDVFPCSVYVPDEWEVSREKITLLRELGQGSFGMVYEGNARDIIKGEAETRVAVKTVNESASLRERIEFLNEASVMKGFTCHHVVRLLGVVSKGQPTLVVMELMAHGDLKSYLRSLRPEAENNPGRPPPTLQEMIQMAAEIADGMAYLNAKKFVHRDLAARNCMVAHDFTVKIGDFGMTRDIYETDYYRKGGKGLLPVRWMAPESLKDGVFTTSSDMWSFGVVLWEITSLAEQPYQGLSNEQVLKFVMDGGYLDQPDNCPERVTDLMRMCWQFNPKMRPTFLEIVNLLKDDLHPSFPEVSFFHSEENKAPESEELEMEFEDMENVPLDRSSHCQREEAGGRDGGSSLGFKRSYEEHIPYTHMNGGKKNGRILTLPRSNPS
Kind of assay: IR cellular autophosphorylation (DELFIA). It counts as cell-based. Conditions: 2 h compound, insulin 3 ug/ml for 15 minutes, IC50 category. The essentials:
(§1)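 Receptor autophosphorylation measured by DELFIA, capturing IGF-1R or IRβ and detecting with europium anti-pTyr, reported as percent of IGF-1- or insulin-stimulated signal. Compounds (30 uM to 1.5 nM) added 2 h before ligand, then 15 min stimulation (IGF-1 30 ng/ml or insulin 3 ug/ml).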

Assay [6] concerns the target T4, NIH-3T3 cells overexpressing human IGF-1R (Homo sapiens, UniProt P08069).
T4 construct: expressed in transfected cells; host or cells: NIH-3T3 (mouse fibroblasts)
Put plainly: IGF-1R cellular autophosphorylation (DELFIA). Type of assay: cell-based. Put shortly: as §1

Assay [7] relates to NCI-H929. Put plainly: Inhibition of cell proliferation (CellTiter-Glo or InCell analyzer), NCI-H929. Conditions: Homo sapiens, 72 h / 3 days, values given as IC50 category. It counts as cell-based. How it is done:
Cell proliferation was measured by either CellTiter-Glo (measures cellular ATP level as a surrogate for total cell number) or by InCell analyzer (counts number of nuclei as a measure of cell number).
For CellTiter-Glo assay, exponentially growing cell lines of different tumor origins, cultured in appropriate media containing 10% fetal bovine serum at 37° C. in a 5% CO2 incubator, were plated at low density (less than 2000cells/well) in 96-well plates. Twenty four hours post-plating, cells were treated with different concentrations of test compounds ranging from 30 uM to 1.5 nM. Several wells were left untreated as a control. Seventy two hours post-treatment, cell numbers were determined using 50-100 ul per well of CellTiter-Glo (Promega #G7573). Plates were incubated at 37° C. for 30 minutes and the chemiluminescent signal was read on the Victor V or Envison 2100 reader.
For InCell Analyser assay, various cell lines of different tumor origins were grown to 70-80% confluency in appropriate culture media containing 10% fetal bovine serum at 37° C. in a 5% CO2 incubator. On day −1, cells were seeded at 2 densities in 384-well plates and incubated at 37° C. overnight. Stock compound plates were prepared in advance which contained dimethyl sulfoxide (DMSO) alone and a 9-point half-log decreasing dose range of the compound in DMSO. The compound plates were stored at −80° C. and each plate was only thawed once and used. On day 0, the main assay plates received compound or DMSO via a sonic delivery system (ECHO). The highest final concentration of compound of the dose range in the culture plates was 10 uM. These plates were cultured at 37° C. for 3 days. […] On day 3, the compound treated plates were stained and fixed to measure proliferation, apoptosis, and mitotic index using an InCelL1000 analyser. A nuclear stain was used to identify cells in the wells. By counting the number of nuclei, the proliferation index of compound treated groups were calculated as a percentage relative to the DMSO control, which was set to 100%. The IC50 values were calculated using model 205 in ExcelFit.
IC50 (nM) values for compounds of select examples were categorized by relative inhibition of cell proliferation.
In general terms: Cellular ATP, detected with luciferase, serves as a proxy for viable cell number.

Assay [8] addresses T1, ALK. Kind of assay: ALK enzyme assay (HTRF). Type of assay: biochemical. The note with it: 0.25 nM ALK, 15.0 μM ATP, values given as pIC50 category. Put shortly: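 Final compound range 0.00017 to 10 μM (twelve 1:3 dilutions). Kinase reaction with ATP and biotinylated synthetic peptide runs 120 min at 20° C, stopped with EDTA; phosphotyrosine detected by HTRF after 60 min. Inhibition referenced to DMSO (1%) and EDTA (0.1 M) controls, curve-fitted.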

The subject of assay [9] is Colo205. Put plainly: Inhibition of cell proliferation (CellTiter-Glo or InCell analyzer), Colo205. It counts as cell-based. Conditions: Homo sapiens, COLO 205, 72 h / 3 days, values given as IC50 category. Put shortly:
In one

Assay [10] concerns the target T5, human IGF1R (hIGF1R) (Homo sapiens, UniProt P08069).
T5 construct: containing amino acid residues 957-1367 of human IGF1R; made in house; host or cells: Sf9 cells (baculovirus)
Put plainly: TR-FRET kinase assay of purified hIGF1R. It counts as biochemical. Conditions: activated hIGF1R 0.5 nM, 10 μM ATP, values given as pIC50 category, read-out: IGF-1R pIC50 (converted).

Where two headings read alike, the source gives them in different places. Where only a bound is given, the exact number is not on record here.

T2 sequence (P06213 979-1382): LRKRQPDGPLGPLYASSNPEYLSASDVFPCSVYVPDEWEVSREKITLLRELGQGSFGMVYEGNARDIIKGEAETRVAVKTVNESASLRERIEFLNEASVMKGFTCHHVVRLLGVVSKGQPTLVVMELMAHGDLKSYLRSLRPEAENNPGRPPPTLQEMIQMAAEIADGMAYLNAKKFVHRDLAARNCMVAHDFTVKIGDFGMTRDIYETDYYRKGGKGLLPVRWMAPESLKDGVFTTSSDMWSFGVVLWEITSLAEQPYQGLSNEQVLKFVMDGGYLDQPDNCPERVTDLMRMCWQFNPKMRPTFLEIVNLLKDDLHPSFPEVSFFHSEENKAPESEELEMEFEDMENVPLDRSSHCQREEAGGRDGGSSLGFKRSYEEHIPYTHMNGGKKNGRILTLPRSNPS
T5 sequence (P08069 957-1367): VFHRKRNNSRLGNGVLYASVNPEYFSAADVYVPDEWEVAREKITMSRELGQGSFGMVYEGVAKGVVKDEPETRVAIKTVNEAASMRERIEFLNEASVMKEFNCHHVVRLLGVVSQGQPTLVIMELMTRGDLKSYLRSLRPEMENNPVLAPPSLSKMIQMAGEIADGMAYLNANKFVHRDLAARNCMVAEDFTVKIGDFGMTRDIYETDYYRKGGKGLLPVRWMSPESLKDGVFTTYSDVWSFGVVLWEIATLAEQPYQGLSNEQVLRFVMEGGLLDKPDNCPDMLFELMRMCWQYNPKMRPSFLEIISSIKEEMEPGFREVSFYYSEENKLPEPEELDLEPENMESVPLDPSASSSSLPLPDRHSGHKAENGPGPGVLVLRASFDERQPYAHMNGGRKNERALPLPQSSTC
T4 sequence (P08069 31-1367): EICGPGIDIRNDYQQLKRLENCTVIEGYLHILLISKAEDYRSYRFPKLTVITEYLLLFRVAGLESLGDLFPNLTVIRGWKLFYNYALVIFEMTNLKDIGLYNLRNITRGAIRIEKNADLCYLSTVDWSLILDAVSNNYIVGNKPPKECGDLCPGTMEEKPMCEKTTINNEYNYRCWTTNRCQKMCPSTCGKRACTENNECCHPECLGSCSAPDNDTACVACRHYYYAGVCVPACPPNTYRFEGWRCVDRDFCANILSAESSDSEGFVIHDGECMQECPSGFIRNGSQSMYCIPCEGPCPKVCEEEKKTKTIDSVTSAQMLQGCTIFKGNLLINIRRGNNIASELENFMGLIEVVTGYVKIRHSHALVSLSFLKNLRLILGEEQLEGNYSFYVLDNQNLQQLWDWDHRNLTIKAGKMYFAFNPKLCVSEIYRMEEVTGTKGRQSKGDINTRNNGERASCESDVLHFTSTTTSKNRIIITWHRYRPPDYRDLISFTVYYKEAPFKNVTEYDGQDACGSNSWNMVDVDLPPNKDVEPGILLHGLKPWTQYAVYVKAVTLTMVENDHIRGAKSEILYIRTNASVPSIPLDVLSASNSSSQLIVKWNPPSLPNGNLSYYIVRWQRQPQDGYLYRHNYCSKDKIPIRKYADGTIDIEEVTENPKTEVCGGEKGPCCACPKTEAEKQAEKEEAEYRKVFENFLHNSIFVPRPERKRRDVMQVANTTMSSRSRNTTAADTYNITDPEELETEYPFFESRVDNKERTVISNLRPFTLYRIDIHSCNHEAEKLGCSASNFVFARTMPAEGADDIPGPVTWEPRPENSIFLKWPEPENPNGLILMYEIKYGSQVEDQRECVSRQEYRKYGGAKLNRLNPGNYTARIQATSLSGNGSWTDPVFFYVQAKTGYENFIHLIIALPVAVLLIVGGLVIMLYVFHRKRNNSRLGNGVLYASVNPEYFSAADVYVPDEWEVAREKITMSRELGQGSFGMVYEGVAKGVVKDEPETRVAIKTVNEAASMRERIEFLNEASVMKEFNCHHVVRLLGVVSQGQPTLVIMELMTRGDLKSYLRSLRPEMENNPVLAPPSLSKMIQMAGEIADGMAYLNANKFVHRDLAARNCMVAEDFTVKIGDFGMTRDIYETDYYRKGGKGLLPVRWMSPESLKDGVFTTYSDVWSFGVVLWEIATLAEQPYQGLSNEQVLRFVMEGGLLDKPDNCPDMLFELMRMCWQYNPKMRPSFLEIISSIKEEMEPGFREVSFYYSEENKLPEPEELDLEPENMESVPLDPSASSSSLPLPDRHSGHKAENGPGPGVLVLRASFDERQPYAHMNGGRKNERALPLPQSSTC

On to “5-chloro-2,4-diaminophenylpyrimidine [NVP-TAE68]”, for which, in assay [1], the “consequence of the inhibition of ALK autophosphorylation in the cells” value is “cell cycle arrest and apoptosis”; the “inhibition of ALK autophosphorylation” value is listed as “inhibited ALK autophosphorylation”. Besides, in [2] (tumor xenograft models), the “activity in tumor xenograft models” value is on record as “active”. Moreover, the “activity against ALCL cells” value in assay [3] (in vitro) is recorded as “active against ALCL cells”.
On to `CCCN1CCC=C(c2ccc(OC)c(Nc3nc(Nc4ccc(F)cc4C(N)=O)c4cc[nH]c4n3)c2)C1` [Example 57, 5-fluoro-2-[(2-{[2-(methyloxy)-5-(1-propyl-1,2,5,6-tetrahydro-3-pyridinyl)phenyl]amino}-1H-pyrrolo[2,3-d]pyrimidin-4-yl)amino]benzamide], for which the IC50 in assay [4] is 0.251 to 1 nM; in assay [5] it was below 100 nM; in assay [6], below 100 nM; in [7] it was below 250 nM; in assay [8], 0.251 to 1 nM; in assay [9], below 250 nM.
For the molecule `COc1cc(N2CCN(C(C)C)CC2)ccc1Nc1nc(Nc2ccc(F)cc2C(N)=O)c2cc[nH]c2n1` [Example 60, 5-fluoro-2-[(2-{[4-[4-(1-methylethyl)-1-piperazinyl]-2-(methyloxy)phenyl]amino}-1H-pyrrolo[2,3-d]pyrimidin-4-yl)amino]benzamide], the IC50 is 0.251 to 1 nM in assay [4]; 100 to 500 nM in assay [5]; below 100 nM in assay [6]; below 250 nM in assay [7]; 0.251 to 1 nM in assay [8]; below 250 nM in [9].
For the molecule `CNC(=O)c1c(F)cc(Cl)cc1Nc1nc(Nc2cc3c(cc2OC)CCN3C(=O)CN2CCCC2)nc2[nH]ccc12` [Example 176, 4-chloro-2-fluoro-N-methyl-6-[(2-{[5-(methyloxy)-1-(1-pyrrolidinylacetyl)-2,3-dihydro-1H-indol-6-yl]amino}-1H-pyrrolo[2,3-d]pyrimidin-4-yl)amino]benzamide], the IC50 in [4] is 0.251 to 1 nM; in [5] it was 100 to 500 nM; in assay [10], 0.251 to 1 nM; in assay [6], 100 to 500 nM; in [7], 250 to 1000 nM; in [9], 250 to 1000 nM.
Regarding `CNC(=O)c1c(F)cccc1Nc1nc(Nc2cc3c(cc2OC)CCCN3C(C)=O)nc2[nH]ccc12` [Example 215, 2-[(2-{[1-acetyl-6-(methyloxy)-1,2,3,4-tetrahydro-7-quinolinyl]amino}-1H-pyrrolo[2,3-d]pyrimidin-4-yl)amino]-6-fluoro-N-methylbenzamide], the IC50 in assay [4] is 5.01 to 158 nM; in assay [5], above 500 nM; in assay [10], 5.01 to 200 nM; in [6], above 500 nM; in assay [7], 250 to 1000 nM; in assay [9], above 1000 nM.
On to `COc1cc2c(cc1Nc1nc(Nc3cccc(F)c3C(N)=O)c3cc[nH]c3n1)N(C(C)=O)CCC2` [Example 216, 2-[(2-{[1-acetyl-6-(methyloxy)-1,2,3,4-tetrahydro-7-quinolinyl]amino}-1H-pyrrolo[2,3-d]pyrimidin-4-yl)amino]-6-fluorobenzamide], for which the IC50 was 5.01 to 158 nM in [4]; above 500 nM in assay [5]; 5.01 to 200 nM in assay [10]; above 500 nM in assay [6]; 250 to 1000 nM in assay [7]; above 1000 nM in assay [9].
Regarding `COc1cc2c(cc1Nc1nc(Nc3cccc(F)c3C(N)=O)c3c(F)c[nH]c3n1)N(C(=O)CN(C)C)CC2` [Example 252, 2-[(2-{[1-(N,N-dimethylglycyl)-5-(methyloxy)-2,3-dihydro-1H-indol-6-yl]amino}-5-fluoro-1H-pyrrolo[2,3-d]pyrimidin-4-yl)amino]-6-fluorobenzamide], the IC50 in [4] is 0.251 to 1 nM; in assay [5], below 100 nM; in [10], 0.251 to 1 nM; in assay [6], below 100 nM; in assay [7], below 250 nM; in assay [9], below 250 nM.
Consider `COc1cc2c(cc1Nc1nc(Nc3cccc(F)c3C(N)=O)c3c(C)c[nH]c3n1)N(C(=O)CN(C)C)CC2` [Example 259, 2-[(2-{[1-(N,N-dimethylglycyl)-5-(methyloxy)-2,3-dihydro-1H-indol-6-yl]amino}-5-methyl-1H-pyrrolo[2,3-d]pyrimidin-4-yl)amino]-6-fluorobenzamide], for which the IC50 is 0.251 to 1 nM in [4]; 100 to 500 nM in [5]; 0.251 to 1 nM in [10]; 100 to 500 nM in assay [6]; below 250 nM in [7]; 250 to 1000 nM in assay [9].
Consider `C[C@@H](Oc1cc(-c2cnn(C3CCNCC3)c2)cnc1N)c1c(Cl)ccc(F)c1Cl` [PF2341066], for which the “inhibition of the growth of ALCL cells” value in assay [2] (experimental systems in vivo) and in assay [3] (experimental systems in vitro) was “inhibit the growth of ALCL cells” throughout.
